# Where a name gives a salt, the structure may show the parent alone.
# Biological target: ROCK2 (Homo sapiens (Human), UniProt O75116)
# Assay: biochemical
# 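Note: rho kinase enzyme reaction halted with EDTA, phospho- and non-phospho peptide separated for read-out, kinase activity inhibition derived across a dose-response series, DMSO under 2%.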
# Chain of ROCK2 (O75116 whole entry, species assumed): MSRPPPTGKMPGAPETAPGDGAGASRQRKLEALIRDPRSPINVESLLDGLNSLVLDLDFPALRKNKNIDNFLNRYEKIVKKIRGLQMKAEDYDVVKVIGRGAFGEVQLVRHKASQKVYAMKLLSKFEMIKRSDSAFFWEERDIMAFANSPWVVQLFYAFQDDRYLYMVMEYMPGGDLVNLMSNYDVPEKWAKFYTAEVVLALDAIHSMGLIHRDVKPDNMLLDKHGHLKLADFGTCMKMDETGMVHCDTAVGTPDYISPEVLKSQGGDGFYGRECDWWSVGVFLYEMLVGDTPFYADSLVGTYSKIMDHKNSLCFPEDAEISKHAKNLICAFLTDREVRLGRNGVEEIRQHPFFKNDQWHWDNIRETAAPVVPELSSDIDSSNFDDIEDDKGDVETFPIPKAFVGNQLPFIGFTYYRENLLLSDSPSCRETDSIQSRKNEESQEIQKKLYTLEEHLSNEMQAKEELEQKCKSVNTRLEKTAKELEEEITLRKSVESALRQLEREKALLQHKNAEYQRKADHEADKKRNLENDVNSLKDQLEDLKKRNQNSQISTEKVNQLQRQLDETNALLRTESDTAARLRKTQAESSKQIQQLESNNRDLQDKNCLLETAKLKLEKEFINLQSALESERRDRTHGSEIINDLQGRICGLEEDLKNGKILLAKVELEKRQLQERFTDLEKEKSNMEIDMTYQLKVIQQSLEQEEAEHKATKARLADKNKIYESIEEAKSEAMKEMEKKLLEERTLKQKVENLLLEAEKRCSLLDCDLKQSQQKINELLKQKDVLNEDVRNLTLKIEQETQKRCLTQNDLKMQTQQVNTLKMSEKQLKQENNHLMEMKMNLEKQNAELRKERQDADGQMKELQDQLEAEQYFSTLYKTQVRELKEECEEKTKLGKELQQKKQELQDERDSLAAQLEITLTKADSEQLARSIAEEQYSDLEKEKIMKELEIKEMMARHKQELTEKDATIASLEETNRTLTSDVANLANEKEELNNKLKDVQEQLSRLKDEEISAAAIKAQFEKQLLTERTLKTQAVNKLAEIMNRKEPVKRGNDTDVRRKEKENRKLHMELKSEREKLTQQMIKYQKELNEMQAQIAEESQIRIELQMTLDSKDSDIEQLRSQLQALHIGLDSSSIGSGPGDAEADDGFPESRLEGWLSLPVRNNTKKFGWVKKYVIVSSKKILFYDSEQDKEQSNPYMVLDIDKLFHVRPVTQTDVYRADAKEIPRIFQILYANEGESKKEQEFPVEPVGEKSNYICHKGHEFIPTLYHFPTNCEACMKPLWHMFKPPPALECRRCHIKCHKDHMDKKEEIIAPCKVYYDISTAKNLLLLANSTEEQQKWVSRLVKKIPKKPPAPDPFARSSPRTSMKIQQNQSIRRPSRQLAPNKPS
row,SMILES,IC50 [µM]
1,"COc1cc(F)ccc1NC1CCN(c2ccc(-c3cn[nH]c3)c(OC)c2)C1=O (single isomer, unassigned) [Example 143, 3-((4-fluoro-2-methoxyphenyl)amino)-1-(3-methoxy-4-(1H-pyrazol-4-yl)phenyl) pyrrolidin-2-one]",0.1 to 2.2
2,"O=C1C(Nc2cccc(OC(F)F)c2)CCN1c1ccc(-c2cn[nH]c2)cn1 (single isomer, unassigned) [Example 321, 1-(5-(1H-pyrazol-4-yl)pyridin-2-yl)-3-((3-(difluoromethoxy)phenyl)amino) pyrrolidin-2-one]",0.1 to 2.2
3,"O=C1C(Nc2cccc(OCC(F)F)c2)CCN1c1ccc(-c2cn[nH]c2)cc1 (single isomer, unassigned) [Example 238, 1-(4-(1H-pyrazol-4-yl)phenyl)-3-((3-(2,2-difluoroethoxy)phenyl)amino)pyrrolidin-2-one]",0.01 to 0.1
4,"COc1cc(F)cc(NC2CCN(c3ccc(-c4cn[nH]c4)c(OC)n3)C2=O)c1 (single isomer, unassigned) [Example 198, 3-((3-fluoro-5-methoxyphenyl)amino)-1-(6-methoxy-5-(1H-pyrazol-4-yl)pyridin-2 yl)pyrrolidin-2-one]",< 0.01
5,"COc1nc(N2CCC(N3CCN(c4ccc(O)cc4)CC3)C2=O)ccc1-c1cn[nH]c1 (racemic) [Example 288, 3-(4-(44iydroxyphenyl)piperazin-1-yl)-1-(6-methoxy-5-(1H-pyrazol-4-yl)pyridin-2-yl)pyrrolidin-2-one]",0.1 to 2.2
6,"CCc1cc(N2CCC(Nc3cc(F)cc(OC)c3)C2=O)ccc1-c1cn[nH]c1 (single isomer, unassigned) [Example 245, 1-(3-ethyl-4-(1H-pyrazol-4-yl)phenyl)-3-((3-fluoro-5-methoxyphenyl)amino) pyrrolidin-2-one]",0.01 to 0.1
7,"O=C1C(Nc2cccc(OC(F)(F)F)c2)CCN1c1ccc(-c2cn[nH]c2)cc1 (stereo not drawn) [Example 8, 1-(4-(1H-pyrazol-4-yl)phenyl)-3-((3-(trifluoromethoxy)phenyl)amino)pyrrolidin-2-one]",0.01 to 0.1
8,"COc1cccc(NC2CCN(c3ccc(-c4cn[nH]c4)c(C(F)F)c3)C2=O)c1 (single isomer, unassigned) [Example 176, 1-(3-(difluoromethyl)-4-(1H-pyrazol-4-yl)phenyl)-3-((3-methoxyphenyl)amino) pyrrolidin-2-one]",0.01 to 0.1
9,"COc1nc(N2CCC(N3CCCC(F)C3)C2=O)ccc1-c1cn[nH]c1 (racemic) [Example 283, 3-(3-fluoropiperidin-1-yl)-1-(6-methoxy-5-(1H-pyrazol-4-yl)pyridin-2-yl)pyrrolidin-2-one hydrochloride]",0.01 to 0.1
10,"CCOc1cc(N2CCC(Nc3cccc(OC)c3)C2=O)ccc1-c1cn[nH]c1 (single isomer, unassigned) [Example 34, 1-(3-ethoxy-4-(1H-pyrazol-4-yl)phenyl)-3-((3-methoxyphenyl)amino)pyrrolidin-2-one]",< 0.01
11,"COc1nc(N2CCC(Nc3cccc(C(N)=O)c3)C2=O)ccc1-c1cn[nH]c1 (racemic) [Example 258, 3-((1-(6-methoxy-5-(1H-pyrazol-4-yl)pyridin-2-yl)-2-oxopyrrolidin-3-yl)amino)benzamide]",< 0.01
12,"COc1nc(N2CCC(N3CCOc4ccccc43)C2=O)ccc1-c1cn[nH]c1 (racemic) [Example 225, 3-(2H-benzo[b][1,4]oxazin-4(3H)-yl)-1-(6-methoxy-5-(1H-pyrazol-4-yl)pyridin-2-yl)pyrrolidin-2-one]",< 0.01
13,"COc1cc(F)cc(NC2CCN(c3cc(F)c(-c4cn[nH]c4)cc3F)C2=O)c1 (single isomer, unassigned) [Example 352, 1-(2,5-difluoro-4-(1H-pyrazol-4-yl)phenyl)-3-((3-fluoro-5-methoxyphenyl)amino)pyrrolidin-2-one]",< 0.01
14,"COc1cc(NC2CCN(c3ccc(-c4cn[nH]c4)nc3)C2=O)ccc1F (single isomer, unassigned) [Example 299, 1-(6-(1H-pyrazol-4-yl)pyridin-3-yl)-3-((4-fluoro-3-methoxyphenyl)amino)pyrrolidin-2-one]",0.01 to 0.1
15,"O=C1C(Nc2ccc(F)cc2F)CCN1c1ccc(-c2cn[nH]c2)cc1 (single isomer, unassigned) [Example 25, 1-(4-(1H-pyrazol-4-yl)phenyl)-3-((2,4-difluorophenyl)amino)pyrrolidin-2-one]",0.01 to 0.1
16,"O=C1C(Nc2cccnc2)CCN1c1ccc(-c2cn[nH]c2)cc1 (stereo not drawn) [Example 9, 1-(4-(1H-pyrazol-4-yl)phenyl)-3-(pyridin-3-ylamino)pyrrolidin-2-one]",0.01 to 0.1
17,"COc1cccc(CC2CCN(c3ccc(-c4cn[nH]c4)cc3)C2=O)c1 (stereo not drawn) [Example 93, 1-(4-(1H-pyrazol-4-yl)phenyl)-3-(3-methoxybenzyl)pyrrolidin-2-one]",0.1 to 2.2
18,"COc1cccc(NC2CCN(c3ccc(-c4cn[nH]c4)c(F)c3F)C2=O)c1 (single isomer, unassigned) [Example 306, 1-(2,3-difluoro-4-(1H-pyrazol-4-yl)phenyl)-3-((3-methoxyphenyl)amino) pyrrolidin-2-one]",< 0.01

row,SMILES,IC50 [µM]
1,"CCc1nc(N2CCC(Nc3ccc(F)c(OCC4CC4)c3)C2=O)ccc1-c1cn[nH]c1 (single isomer, unassigned) [Example 211, 3-((3-(cyclopropylmelhoxy)-4-fluorophenyl)amino)-1-(6-ethyl-5-(1H-pyrazol-4-yl)pyridin-2-yl)pyrrolidin-2-one]",0.01 to 0.1
2,"O=C1C(c2ccccc2F)CCN1c1ccc(-c2cn[nH]c2)cc1 (stereo not drawn) [Example 104, 1-(4-(1H-pyrazol-4-yl)phenyl)-3-(2-fluorophenyl)pyrrolidin-2-one]",0.01 to 0.1
3,"COc1nc(N2CCC(Nc3cccc(-c4cnco4)c3)C2=O)ccc1-c1cn[nH]c1 (racemic) [Example 262, 1-(6-methoxy-5-(1H-pyrazol-4-yl)pyridin-2-yl)-3-((3-(oxazol-5-yl)phenyl)amino) pyrrolidin-2-one]",0.01 to 0.1
4,"O=C1[C@H](N2CCc3ccccc32)CCN1c1ccc(-c2cn[nH]c2)cc1 [Example 393, (R)-1-(4-(1H-pyrazol-4-yl)phenyl)-3-(indolin-1-yl)pyrrolidin-2-one]",0.01 to 0.1
5,"COc1nc(N2CCC(N3CC[C@H](NC(C)=O)C3)C2=O)ccc1-c1cn[nH]c1 (mixture of isomers) [Example 294, N-((3S)-1′-(6-methoxy-5-(1H-pyrazol-4-yl)pyridin-2-yl)-2′-oxo-[1,3′-bipyrrolidin]-3-yl)acetamide]",0.1 to 2.2
6,"COc1cc(F)cc(NC2CCN(c3ccc(-c4cn[nH]c4)c(C(F)F)c3)C2=O)c1 (single isomer, unassigned) [Example 178, 1-(3-(difluoromethyl)-4-(1H-pyrazol-4-yl)phenyl)-3-((3-fluoro-5-methoxyphenyl)amino)pyrrolidin-2-one]",0.01 to 0.1
7,"COc1cc(NC2CCN(c3ccc(-c4cn[nH]c4)c(C#N)c3)C2=O)ccc1F (single isomer, unassigned) [Example 379, 5-(3-((4-fluoro-3-methoxyphenyl)amino)-2-oxopyrrolidin-1-yl)-2-(1H-pyrazol-4-yl)benzonitrile]",0.1 to 2.2
8,"O=C1C(Nc2cccc(OCC3CC3)c2)CCN1c1ccc(-c2cn[nH]c2)cc1 (stereo not drawn) [Example 11, 1-(4-(1H-pyrazol-4-yl)phenyl)-3-((3-(cyclopropylmethoxy)phenyl)amino)pyrrolidin-2-one]",< 0.01
9,"O=C1[C@H](N2CCCc3ccccc32)CCN1c1ccc(-c2cn[nH]c2)cc1 [Example 394, (R)-1-(4-(1H-pyrazol-4-yl)phenyl)-3-(3,4-dihydroquinolin-1(2H)-yl)pyrrolidin-2-one]",0.01 to 0.1
10,"COc1cccc(NC2CCN(c3ccc(-c4cn[nH]c4)c(C(F)(F)F)c3)C2=O)c1 (single isomer, unassigned) [Example 367, 1-(4-(1H-pyrazol-4-yl)-3-(trifluoromethyl)phenyl)-3-((3-methoxyphenyl)amino) pyrrolidin-2-one]",0.1 to 2.2
11,"O=C1C(Nc2cccc(OC(F)F)c2)CCN1c1ccc(-c2cn[nH]c2)cn1 (single isomer, unassigned) [Example 322, 1-(5-(1H-pyrazol-4-yl)pyridin-2-yl)-3-((3-(difluoromethoxy)phenyl)amino) pyrrolidin-2-one]",0.01 to 0.1
12,"COc1ccc(C(N)=O)c(NC2CCN(c3ccc(-c4cn[nH]c4)cc3)C2=O)c1 (racemic) [Example 324, 2-((1-(4-(1H-pyrazol-4-yl)phenyl)-2-oxopyrrolidin-3-yl)amino)-4-methoxybenzamide]",0.1 to 2.2
13,"COc1cc(NC2CCN(c3ccc(-c4cn[nH]c4)c(Cl)c3)C2=O)ccc1F (single isomer, unassigned) [Example 160, 1-(3-chloro-4-(1H-pyrazol-4-yl)phenyl)-3-((4-fluoro-3-methoxyphenyl)amino) pyrrolidin-2-one]",0.01 to 0.1
14,"COc1c(F)cccc1NC1CCN(c2ccc(-c3cn[nH]c3)cc2)C1=O (single isomer, unassigned) [Example 15, 1-(4-(1H-pyrazol-4-yl)phenyl)-3-((3-fluoro-2-methoxyphenyl)amino)pyrrolidin-2-one]",< 0.01
15,"COc1c(F)cccc1NC1CCN(c2ccc(-c3cn[nH]c3)cn2)C1=O (single isomer, unassigned) [Example 89, 1-(5-(1H-pyrazol-4-yl)pyridin-2-yl)-3-((3-fluoro-2-methoxyphenyl)amino) pyrrolidin-2-one]",< 0.01
16,"CCOc1cc(N2CCC(Nc3cccc(OC)c3)C2=O)ccc1-c1cn[nH]c1 (single isomer, unassigned) [Example 35, 1-(3-ethoxy-4-(1H-pyrazol-4-yl)phenyl)-3-((3-methoxyphenyl)amino)pyrrolidin-2-one]",0.01 to 0.1
17,"COc1nc(N2CCC(N3CCS(=O)(=O)CC3)C2=O)ccc1-c1cn[nH]c1 (racemic) [Example 280, 3-(1,1-dioxidothiomorpholino)-1-(6-methoxy-5-(1H-pyrazol-4-yl)pyridin-2-yl)pyrrolidin-2-one]",0.01 to 0.1
18,"O=C1C(Nc2cccc(OC(F)F)c2)CCN1c1ccc(-c2cn[nH]c2)c(F)c1 (single isomer, unassigned) [Example 355, 3-((3-(difluoromethoxy)phenyl)amino)-1-(3-fluoro-4-(1H-pyrazol-4-yl)phenyl) pyrrolidin-2-one]",0.01 to 0.1

# Reference: patent US10112929B2, “Lactams as inhibitors of rock” (BRISTOL-MYERS SQUIBB COMPANY, priority 2015, dated 2018)
